# Data from PMC6963673, “Phenylboronic Acids Probing Molecular Recognition against Class A and Class C β-lactamases” (Antibiotics, 2019).
# Where two headings read alike, the source gives them in different places.
# Experiments:
# KPC-2 = target: T1, KPC-2 (Klebsiella pneumoniae, UniProt Q9F663); test: In vitro enzyme inhibition assay against KPC-2 (nitrocefin reporter substrate); assay type: biochemical; details: for drop in potency against KPC-2: meta substituent
# T1 construct: made in house
# Text: (§1) Expression and purification of recombinant KPC-2 and GES-5 have been performed as already reported. For recombinant AmpC from Pseudomonas aeruginosa, the optimized full-length synthetic gene was purchased (GeneArt service under Life Technologie) and subcloned into pRham vector to have it in the full-length version. Protein was expressed according to standard protocol: P. aeruginosa AmpC-β-lactamase was obtained from a culture of E. coli BL21(DE3), carrying the plasmid vector pRham-AmpC. 1L of LB-medium with kanamycin 50 μg/mL, at 37 °C, 150 RPM for 24 hrs. Expression was induced by 0.2% w/v Rhamnose. After 5–6 hours the cell broth was centrifuged at 4500 RPM, 4 °C, for 20 min. The sample was loaded on a column packed with 25 mL of Affigel-10 (Biorad) functionalized with 3 MAPB (3-methylaminophenylboronic acid). The column was previously equilibrated with the loading buffer. The protein was eluted (flow rate, 1 mL/min) with 5 column-volumes of elution-buffer (0.5 M boric acid, 0.5 M NaCl, pH 7.0). β-lactamase activity was checked in each elution fraction using 200 μM CENTA [35]. Active fractions were pooled, concentrated by ultrafiltration using a Millipore Ultra-15 (Ultracel-10K; Millipore) and checked by SDS-Page. The protein pool final concentration (1 mg/mL) was assessed using Bradford and UV-Vis assays. Purified AmpC β-lactamase was stored at −80 °C [36].
# (§2) The half-maximal inhibitory concentration (IC50) of phenylboronic acid derivatives was determined as follows. Reactions were monitored using a Jasco V-730 spectrophotometer at […] wavelength. Boronic acids were dissolved in dimethyl sulfoxide (DMSO) to a concentration of 10 mM and stored at −20°C. Each compound was tested at concentrations ranging from 1 µM to 200 µM for inhibitory activity vs full-length KPC-2 enzyme, GES-5 and AmpC in 50 mM of PB + 50 mM KCl at pH 7.4 at 25°C with 0.01% v/v Triton X-100, to avoid compound aggregation and promiscuous inhibition in presence of nitrocefin as reported substrate. For tests against KPC-2, reporter substrate nitrocefin was used at 40 μM, (Km 36 μM) while for tests against GES-5 and AmpC reporter substrate nitrocefin was used at 200 μM (Km 208 μM and Km 200 respectively). All the experiments were performed in triplicate. Experimental error never exceeded 5%. The reaction was typically initiated by adding the enzyme to the reaction buffer last. The IC50 values were determined by measuring the rate of hydrolysis of a reporter substrate in the presence of five different inhibitor concentrations at λ 482 nm. The binding affinity ki was estimated, for each compound in the library, from the determined IC50 by Cheng–Prusoff equation as per competitive inhibition (Table 1).
# GES-5 = target: T2, GES-5 (Klebsiella pneumoniae, UniProt Q09HD0); test: In vitro enzyme inhibition assay against GES-5 (nitrocefin reporter substrate); assay type: biochemical
# T2 construct: made in house
# T2 sequence (Q09HD0 19-287): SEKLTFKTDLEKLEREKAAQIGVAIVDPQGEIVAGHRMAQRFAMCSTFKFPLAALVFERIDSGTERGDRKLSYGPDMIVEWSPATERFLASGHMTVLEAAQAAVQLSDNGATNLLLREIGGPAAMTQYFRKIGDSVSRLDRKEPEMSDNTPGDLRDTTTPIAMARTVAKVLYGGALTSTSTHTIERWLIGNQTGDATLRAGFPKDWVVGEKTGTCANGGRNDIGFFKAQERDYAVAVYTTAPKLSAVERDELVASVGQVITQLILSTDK
# Text: as §1, §2
# AmpC [1] = target: T3, AmpC (Pseudomonas aeruginosa, UniProt P24735); test: In vitro enzyme inhibition assay against AmpC (nitrocefin reporter substrate); assay type: biochemical; details: for drop in potency against AmpC: ortho substitution
# T3 construct: subcloned into pRham vector to have it in the full-length version; made in house; host or cells: E. coli BL21(DE3), plasmid pRham-AmpC
# T3 sequence (P24735 27-397): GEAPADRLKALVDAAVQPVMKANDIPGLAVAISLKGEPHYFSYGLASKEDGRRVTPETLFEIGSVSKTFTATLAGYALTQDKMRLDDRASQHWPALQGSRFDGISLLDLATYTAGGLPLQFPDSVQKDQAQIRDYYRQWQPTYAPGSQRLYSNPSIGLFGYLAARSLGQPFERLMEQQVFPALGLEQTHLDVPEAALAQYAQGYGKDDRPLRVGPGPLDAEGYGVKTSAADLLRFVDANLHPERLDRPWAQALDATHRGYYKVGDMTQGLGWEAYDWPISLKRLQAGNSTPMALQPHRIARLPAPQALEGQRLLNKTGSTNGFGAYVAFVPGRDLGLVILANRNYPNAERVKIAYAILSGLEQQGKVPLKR
# Text: as §1, §2
# [2] = system: clinical isolates of Klebsiella pneumoniae expressing KPC-2; test: Checkerboard microdilution assay and FICI, meropenem plus inhibitor; assay type: cell-based; details: for FICI Antibiotic + inhibitor: MEM + inhibitor, synergy FICI ≤0.5, indifference >0.5 and ≤4, antagonism >4; for nature of interaction with antibiotic: Klebsiella pneumoniae strains, in combination with MEM
# Method: (§3) To assess the nature of the in vitro interactions between the compounds and antibiotics against selected clinical strains, the data obtained from the checkerboard assay were used to calculate the fractional inhibitory concentration index (FICI). Briefly, exponential cultures of the bacterial strains in Mueller Hinton broth were inoculated in the wells of microtiter plates containing different concentrations of the cited antibiotics, with and without phenylboronic acids, and incubated at 37 °C for 18 hours. The growth in each well was quantified spectrophotometrically at 595 nm by a microplate reader TECAN Infinite (Tecan Trading AG, Switzerland). The minimal inhibitory concentration (MIC) for each drug and combination of drugs was defined as the concentration of drug that reduced growth by 80% compared to that of organisms grown in the absence of drug. The fractional inhibitory concentration index (FICI) is the mathematical expression of the effect of the combination of antibacterial agents expressed in Equation (1):(1) ΣFIC=FICA+FICB=MICAB/MICA+MICBA/MICB in which MICA and MICB are the MICs of drugs A and B acting alone, and MICAB and MICBA are the MICs of drugs A and B in combination. Synergy is defined when the FICI is ≤0.5, antagonism when the FICI is > 4, and indifference when the FICI is >0.5 and ≤4.
# [3] = system: Pseudomonas aeruginosa overexpressing AmpC; test: Checkerboard microdilution assay and FICI, ceftazidime plus inhibitor; assay type: cell-based; details: for FICI Antibiotic + inhibitor: CAZ + inhibitor, synergy FICI ≤0.5, indifference >0.5 and ≤4, antagonism >4; for MIC Antibiotic: antibiotic alone; for nature of interaction with antibiotic: Pseudomonas aeruginosa, in combination with CAZ
# Method: To investigate the ability of our phenylboronic acid derivatives 2-5 to reach the periplasmic space, where SBLs are secreted and concentrated in Gram negative bacteria, and synergically protect β-lactam antibiotics hydrolysis by BLs, drug interactions model via the fractional inhibitory concentration index (FICI) was determined against clinical strains overexpressing BLs targets of our studies (Table 2).
# as §3
# AmpC [4] = target: T3, AmpC; details: read-out: AmpC Ki; lead phenylboronic acid; cited from earlier work
# T1 sequence (Q9F663 25-293 limits assumed): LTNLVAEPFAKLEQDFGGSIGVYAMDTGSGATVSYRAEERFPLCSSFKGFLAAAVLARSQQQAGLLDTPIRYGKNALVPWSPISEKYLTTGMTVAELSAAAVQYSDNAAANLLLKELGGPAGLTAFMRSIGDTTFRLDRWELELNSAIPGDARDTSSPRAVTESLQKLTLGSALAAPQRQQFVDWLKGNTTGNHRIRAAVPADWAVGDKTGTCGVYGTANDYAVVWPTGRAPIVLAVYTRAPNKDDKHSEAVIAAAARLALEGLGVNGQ
SMILES,Ki (KPC-2) [µM],Ki (GES-5) [µM],Ki (AmpC [1]) [µM],drop in potency against AmpC (AmpC [1]),FICI Antibiotic + inhibitor ([2]; Klebsiella 53A8),FICI Antibiotic + inhibitor ([2]; Klebsiella 53A9),FICI Antibiotic + inhibitor ([2]; Klebsiella 99D8),nature of interaction with antibiotic [2],FICI Antibiotic + inhibitor ([3]; P aeruginosa 12),FICI Antibiotic + inhibitor ([3]; P aeruginosa 148),higher activity against GES-5 with respect to KPC-2 (GES-5; ratio of Ki KPC-2 to Ki GES-5) [fold],MIC Antibiotic ([3]; P aeruginosa 12) [µg/mL],MIC Antibiotic ([3]; P aeruginosa 148) [µg/mL],drop in potency against KPC-2 (KPC-2),nature of interaction with antibiotic [3],Ki (AmpC [4]) [µM]
O=C(O)CCc1ccccc1B(O)O [Compound 4],1.13,1.83,76.1,up to 50 fold,0.1875,0.2500,0.1250,clear synergistic activity,2,1.5,–,–,–,–,–,–
"O=C(O)C=Cc1ccccc1B(O)O [Compound 2, [2-(2-carboxyvinyl)-phenyl]boronic acid]",2.43,0.11,41.7,up to 50 fold,0.0117,0.0175,0.0156,clear synergistic activity,2,1,23,–,–,–,–,–
"CC(C)(O/N=C(\C(=O)N[C@@H]1C(=O)N2C(C(=O)[O-])=C(C[n+]3ccccc3)CS[C@H]12)c1csc(N)n1)C(=O)O [CAZ, ceftazidime, reference compound]",–,–,–,–,–,–,–,–,–,–,–,32,128,–,–,–
"O=C(O)C=Cc1cccc(B(O)O)c1 [Compound 3, [3-(2-carboxyvinyl)phenyl] boronic acid]",31.2,24.6,1.45,–,2,1.5,2,–,0.5,0.375,–,–,–,up to 47 fold,synergism can be defined,–
O=C(O)CCc1cccc(B(O)O)c1 [Compound 5],53,69.4,5.3,–,2,1.5,2,–,0.3750,0.0936,–,–,–,up to 47 fold,synergism can be defined,–
"OB(O)c1ccccc1 [Compound 1, phenylboronic acid]",–,–,–,–,–,–,–,–,–,–,–,–,–,–,–,4.85
